What was measured:
[1] = tested on: healthy subjects; conditions: healthy subjects taking 5, 20, 50 or 100 mg; versus known SGLT2 inhibitor GSK 869,682 (50, 100, 200 or 500 mg); FIG. 1
Description: The panel at the top of FIG. 1 is from a presentation by GSK in an analyst meeting, showing the amount of glucose excretion/day in healthy subjects taking 50, 100, 200 or 500 mg of GSK 869,682. The panel at the bottom is from study MB-102001, showing the amount of glucose excretion/day in healthy subjects taking 5, 20, 50 or 100 mg of compound Ia.

[2] = tested on: subjects with type 2 diabetes; conditions: 14-day multiple ascending dose, compared to placebo, FIG. 2
Excerpt: Results from the 24-hour glucose excretion are shown in FIG. 2 for all subjects in the MB-102003 study. The mean urine glucose is in the darker lines.

## CCOc1ccc(Cc2cc([C@@H]3O[C@H](CO)[C@@H](O)[C@H](O)[C@H]3O)ccc2Cl)cc1 [compound Ia]
[1]
  glucosuric effect: loss of calories in the urine (glucose excretion/day): significant loss of calories in the urine
[2]
  24-hour urine glucose excretion: higher urine glucose excretion

From patent publication US8450286B2, “Method for treating cancers having high glucose requirements employing an SGLT2 inhibitor and compositions thereof” (Bristol-Myers Squibb Company, priority 2008, dated 2013)
